Experimental data taken from ChEMBL document CHEMBL4765457, “Targeting dual tolerant regions of binding pocket: Discovery of novel morpholine-substituted diarylpyrimidines as potent HIV-1 NNRTIs with significantly improved water solubility” (Eur J Med Chem, 2020).
pEC50, pIC50: −log10 of the molar value. In brackets after ≈: the same amount, converted by molar mass.

Tests used:
[1] = system: Human immunodeficiency virus 1; assay: Antiviral activity against HIV1 3B infected in human MT4 cells assessed as virus-induced cytopathic effect incubated for 5 days by MTT assay; assay type: functional, organism-based; settings: Human immunodeficiency virus 1, 3B, MT4, 120 h
[2] = system: Human immunodeficiency virus 1; assay: Antiviral activity against HIV1 RES056 infected in human MT4 cells assessed as inhibition of virus-induced cytopathic effect incubated for 5 days by MTT assay; assay type: functional, organism-based; settings: Human immunodeficiency virus 1, RES056, MT4, 120 h
[3] = Cytotoxicity against human MT4 cells assessed as reduction in cell viability incubated for 5 days by MTT assay; assay type: cell-based; settings: time 5 day
[4] = Selectivity index, ratio of CC50 for human MT4 cells to EC50 for antiviral activity against HIV1 3B infected in human MT4 cells; assay type: toxicity, cell-based; settings: read-out: Ratio CC50/EC50
[5] = Selectivity index, ratio of CC50 for human MT4 cells to EC50 for antiviral activity against HIV1 RES056 infected in human MT4 cells; assay type: toxicity, cell-based; settings: read-out: Ratio CC50/EC50
[6] = system: Human immunodeficiency virus 1; assay: Potency index, ratio of lamivudine EC50 to test compound EC50 for antiviral activity against HIV1 3B infected in human MT4 cells; assay type: functional
[7] = system: Human immunodeficiency virus 1; assay: Potency index, ratio of zidovudine EC50 to test compound EC50 for antiviral activity against HIV1 3B infected in human MT4 cells; assay type: functional
[8] = system: Human immunodeficiency virus 1; assay: Antiviral activity against HIV1 harboring RT L100I mutant infected in human MT4 cells assessed as inhibition of virus-induced cytopathic effect incubated for 5 days by MTT assay; assay type: functional, organism-based; settings: Human immunodeficiency virus 1, MT4, 120 h
[9] = system: Human immunodeficiency virus 1; assay: Antiviral activity against HIV1 harboring RT K103N mutant infected in human MT4 cells assessed as inhibition of virus-induced cytopathic effect incubated for 5 days by MTT assay; assay type: functional, organism-based; settings: Human immunodeficiency virus 1, MT4, 120 h
[10] = system: Human immunodeficiency virus 1; assay: Antiviral activity against HIV1 harboring RT Y181C mutant infected in human MT4 cells assessed as inhibition of virus-induced cytopathic effect incubated for 5 days by MTT assay; assay type: functional, organism-based; settings: Human immunodeficiency virus 1, MT4, 120 h
[11] = system: Human immunodeficiency virus 1; assay: Antiviral activity against HIV1 harboring RT Y188L mutant infected in human MT4 cells assessed as inhibition of virus-induced cytopathic effect incubated for 5 days by MTT assay; assay type: functional, organism-based; settings: Human immunodeficiency virus 1, MT4, 120 h
[12] = system: Human immunodeficiency virus 1; assay: Antiviral activity against HIV1 harboring RT E138K mutant infected in human MT4 cells assessed as inhibition of virus-induced cytopathic effect incubated for 5 days by MTT assay; assay type: functional, organism-based; settings: Human immunodeficiency virus 1, MT4, 120 h
[13] = system: Human immunodeficiency virus 1; assay: Antiviral activity against HIV1 harboring RT F227L/V106Amutant infected in human MT4 cells assessed as inhibition of virus-induced cytopathic effect incubated for 5 days by MTT assay; assay type: functional, organism-based; settings: Human immunodeficiency virus 1, MT4, 120 h
[14] = Resistance index, ratio of EC50 for antiviral activity against HIV1 expressing RT L100I mutant infected in human MT4 cells to EC50 for antiviral activity against HIV1 3B infected in human MT4 cells; assay type: functional
[15] = Resistance index, ratio of EC50 for antiviral activity against HIV1 expressing RT K103N mutant infected in human MT4 cells to EC50 for antiviral activity against HIV1 3B infected in human MT4 cells; assay type: functional
[16] = Resistance index, ratio of EC50 for antiviral activity against HIV1 expressing RT Y181C mutant infected in human MT4 cells to EC50 for antiviral activity against HIV1 3B infected in human MT4 cells; assay type: functional
[17] = Resistance index, ratio of EC50 for antiviral activity against HIV1 expressing RT Y188L mutant infected in human MT4 cells to EC50 for antiviral activity against HIV1 3B infected in human MT4 cells; assay type: functional
[18] = Resistance index, ratio of EC50 for antiviral activity against HIV1 expressing RT E138K mutant infected in human MT4 cells to EC50 for antiviral activity against HIV1 3B infected in human MT4 cells; assay type: functional
[19] = Resistance index, ratio of EC50 for antiviral activity against HIV1 expressing RT F227L/V106A mutant infected in human MT4 cells to EC50 for antiviral activity against HIV1 3B infected in human MT4 cells; assay type: functional
[20] = Inhibition of HIV1 reverse transcriptase assessed as reduction in biotin-dUTP incorporation into template preincubated for 1 hr followed by template/primer and dNTP addition and measured after 1 hr by ELISA; parameters: species or system Human immunodeficiency virus 1
[21] = Solubility of compound in water at pH 7.4; assay type: physicochemical
[22] = Solubility of compound in water at pH 7; assay type: physicochemical
[23] = Solubility of compound in water at pH 2; assay type: physicochemical
[24] = system: Human immunodeficiency virus 1; assay: Potency index, ratio of nevirapine EC50 to test compound EC50 for antiviral activity against HIV1 harboring K103N mutant infected in human MT4 cells; assay type: functional
[25] = system: Human immunodeficiency virus 1; assay: Potency index, ratio of lamivudine EC50 to test compound EC50 for antiviral activity against HIV1 harboring K103N mutant infected in human MT4 cells; assay type: functional

Row | SMILES | pEC50 [1] | pEC50 [2] | CC50 at 120 h [3] [µM] | selectivity ratio [4] | selectivity ratio [5] | pEC50 [8] | pEC50 [9] | pEC50 [10] | pEC50 [11] | pEC50 [12] | pEC50 [13] | Ratio EC50 [14] | Ratio EC50 [15] | Ratio EC50 [16] | Ratio EC50 [17] | Ratio EC50 [18] | Ratio EC50 [19] | pIC50 [20] | solubility [21] [µg/mL] | solubility [22] [µg/mL] | further results
1 | Cc1cc(C#N)cc(C)c1Oc1nc(NC2CCN(CC(=O)N3CCOCC3)CC2)nc2c1SCC2 | 7.24 | < 4.41 | 38.6 | 663 | < 1 | 5.21 | 5.89 | 5.26 | 5.28 | 5.88 | < 4.41 | 105 | 21.9 | 93.5 | 89.4 | 22.6 | >662.9 | 5.47 | 29.1 (≈ 57.2 µM) | 35.2 (≈ 69.2 µM) | Ratio EC50 [6]: <=87; Ratio EC50 [7]: 2.8; solubility [23]: 248 µg/mL (≈ 488 µM)
2 | Cc1cc(C#N)cc(C)c1Oc1nc(Nc2ccc(C#N)cc2)nc(N)c1Br [ETRAVIRINE] | – | 7.42 | > 4.59 | > 1640 | > 122 | 8.30 | 8.52 | 7.85 | 7.85 | 8.15 | 7.74 | 1.9 | 1 | 4.9 | 4.9 | 2.6 | 6.3 | 7.23 | – | – | –
3 | Cc1cc(C#N)cc(C)c1Oc1nc(NC2CCN(CCN3CCOCC3)CC2)nc2ccsc12 | 7.06 | < 4.43 | 36.8 | 423 | < 1 | 5.06 | 5.98 | 5.08 | 5.03 | 6.36 | 5.15 | 99.9 | 11.9 | 95.8 | 107.9 | 5 | 81.9 | 5.60 | 15.6 (≈ 31.7 µM) | 24.4 (≈ 49.5 µM) | solubility [23]: 207 µg/mL (≈ 420 µM)
4 | Cc1cc(C#N)cc(C)c1Oc1nc(NC2CCN(CC(=O)N3CCOCC3)CC2)nc2sccc12 | 7.09 | < 4.44 | 36.3 | 442 | < 1 | 5.44 | 5.79 | 5.44 | 5.14 | 6.48 | 4.86 | 44.8 | 19.8 | 44.3 | 87.5 | 4.1 | 168 | 5.83 | 27.6 (≈ 54.5 µM) | 34.2 (≈ 67.5 µM) | solubility [23]: 228 µg/mL (≈ 450 µM)
5 | Cc1cc(C#N)cc(C)c1Oc1nc(NC2CCN(CCN3CCOCC3)CC2)nc2sccc12 | 7.19 | < 4.42 | 37.9 | 579 | < 1 | 4.83 | 6.21 | 5.16 | 4.34 | 6.23 | 4.73 | 224.5 | 9.3 | 105.5 | 690.6 | 9 | 285.5 | 5.63 | 19.7 (≈ 40 µM) | 29.3 (≈ 59.5 µM) | solubility [23]: 243 µg/mL (≈ 493 µM)
6 | Cc1cc(C#N)cc(C)c1Oc1nc(NC2CCN(CCN3CCOCC3)CC2)nc2cc(F)ccc12 | 6.62 | < 4.77 | 16.9 | 70 | < 1 | 5.91 | 6.28 | 5.87 | 5.62 | 6.02 | 5.53 | 5.1 | 2.2 | 5.6 | 10 | 4 | 12.1 | – | – | – | Ratio EC50 [24]: 10; Ratio EC50 [25]: 8
